{"source": "patent US20090209489A1", "about": "“Compositions for the treatment of diabetis, system PH disorders, high blood pressure, and a cancer marker system” (priority 2008, published 2009)", "origin": "cited, not measured here", "system": "Group 5 viruses", "conditions": "therapeutic doses", "data": [{"smiles": "CC(=O)N[C@H]1[C@H]([C@H](O)[C@H](O)CO)OC(O)(C(=O)O)C[C@@H]1O", "note": "(stereo partly shown) [N-Acetyl-Neuraminic Acid]", "values": [{"measurement": "effectiveness at killing Group 5 viruses relative to any other known medication", "result": "more than 1000 times"}]}]}
